For eleven compounds, TGI results are on record in PubChem BioAssay (NCI).

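Exposure lasted 48 hours, with cells grown in 96-well plates and compounds tested at five concentrations. TGI: concentration producing complete growth inhibition.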 Some results are limits rather than exact numbers.

The subject of one test is NCI-H226 lung. The test is described as follows: inhibition of tumour cell growth, NCI panel, 48 h.
`Cc1ccc(-c2c3c(n(C4OC(CO)C(O)C(O)C4O)c(=S)c2C#N)CC(C)(C)CC3=O)cc1` (stereo not drawn) yielded a TGI of over 100 µM.
Same read-out and setting: then `COc1ccc(C(OCC2OC(n3cc(C)c(=O)[nH]c3=O)CC2n2cc(Cn3cc(Br)c(=O)[nH]c3=O)nn2)(c2ccccc2)c2ccccc2)cc1` (stereo not drawn), with over 100 µM.
Still for that read-out and setting: then `CC(NNC(=O)CC(=O)N(C(=O)c1ccccc1)c1ccc(Cl)cc1)c1cc2ccccc2oc1=O` (stereo not drawn), with over 10 µM; and `CC(C)(C)c1cc(C(=O)/C=C/C=C/c2ccccc2)cc(C(C)(C)C)c1O`, with 77.2 µM; and `O=[N+]([O-])c1ccc(S(=O)(=O)N=Ic2ccccc2)cc1`, with over 100 µM.
The same measure, in the same setting: then `O=C(O)CCN(CCC(=O)O)c1ccc(/C=C2\SC(=S)NC2=O)cc1`, with over 100 µM; and `O=C(NS(=O)(=O)OCC(Cl)(Cl)Cl)SCCC(F)(F)C(F)(F)C(F)(F)C(F)(F)C(F)(F)C(F)(F)F`, with 70.7 µM.
As for `S=c1[nH]n2c(COc3cccc(OCc4nnc5sc(=S)[nH]n45)c3)nnc2s1`, the TGI is over 100 µM.
As to `Cc1cn(CCCCCOC(=O)NC(CCCN=C(N)N)C(=O)O)c(=O)[nH]c1=O` (stereo not drawn), the TGI is over 100 µM.
The same measure, in the same setting: then `COc1ccc(C(=O)/C=C/c2ccncc2)cc1OC`, with 30.6 µM; and `CC(C)(C)NC(=O)N1N=C(c2ccccc2)C1c1ccccc1` (stereo not drawn), with over 100 µM.

The test system of a further test is SK-OV-3 ovarian. The test is described as follows: inhibition of tumour cell growth, NCI panel, 48 h.
`COc1ccc(C(OCC2OC(n3cc(C)c(=O)[nH]c3=O)CC2n2cc(Cn3cc(Br)c(=O)[nH]c3=O)nn2)(c2ccccc2)c2ccccc2)cc1` (stereo not drawn) gave a TGI of over 100 µM.
Still for that read-out and setting: then `CC(NNC(=O)CC(=O)N(C(=O)c1ccccc1)c1ccc(Cl)cc1)c1cc2ccccc2oc1=O` (stereo not drawn), with over 10 µM; and `CC(C)(C)c1cc(C(=O)/C=C/C=C/c2ccccc2)cc(C(C)(C)C)c1O`, with over 100 µM; and `O=[N+]([O-])c1ccc(S(=O)(=O)N=Ic2ccccc2)cc1`, with over 100 µM.
Still for that read-out and setting: then `O=C(O)CCN(CCC(=O)O)c1ccc(/C=C2\SC(=S)NC2=O)cc1`, with over 100 µM; and `O=C(NS(=O)(=O)OCC(Cl)(Cl)Cl)SCCC(F)(F)C(F)(F)C(F)(F)C(F)(F)C(F)(F)C(F)(F)F`, with 32.1 µM.
Still for that read-out and setting: then `S=c1[nH]n2c(COc3cccc(OCc4nnc5sc(=S)[nH]n45)c3)nnc2s1`, with over 100 µM; and `Cc1cn(CCCCCOC(=O)NC(CCCN=C(N)N)C(=O)O)c(=O)[nH]c1=O` (stereo not drawn), with over 100 µM; and `COc1ccc(C(=O)/C=C/c2ccncc2)cc1OC`, with 30.9 µM.
For `CC(C)(C)NC(=O)N1N=C(c2ccccc2)C1c1ccccc1` (stereo not drawn), the TGI was over 100 µM.

For the next test, the system named is BT-549 breast. The test is described as follows: inhibition of tumour cell growth, NCI panel, 48 h.
Compound `Cc1ccc(-c2c3c(n(C4OC(CO)C(O)C(O)C4O)c(=S)c2C#N)CC(C)(C)CC3=O)cc1` (stereo not drawn) registered a TGI of over 100 µM.
On the same count and under the same terms, then `COc1ccc(C(OCC2OC(n3cc(C)c(=O)[nH]c3=O)CC2n2cc(Cn3cc(Br)c(=O)[nH]c3=O)nn2)(c2ccccc2)c2ccccc2)cc1` (stereo not drawn), with over 100 µM; and `CC(NNC(=O)CC(=O)N(C(=O)c1ccccc1)c1ccc(Cl)cc1)c1cc2ccccc2oc1=O` (stereo not drawn), with over 10 µM; and `CC(C)(C)c1cc(C(=O)/C=C/C=C/c2ccccc2)cc(C(C)(C)C)c1O`, with 57.2 µM.
As for `O=[N+]([O-])c1ccc(S(=O)(=O)N=Ic2ccccc2)cc1`, the TGI is over 100 µM.
As for `O=C(O)CCN(CCC(=O)O)c1ccc(/C=C2\SC(=S)NC2=O)cc1`, the TGI was over 100 µM.
As for `O=C(NS(=O)(=O)OCC(Cl)(Cl)Cl)SCCC(F)(F)C(F)(F)C(F)(F)C(F)(F)C(F)(F)C(F)(F)F`, the TGI was over 100 µM.
Compound `S=c1[nH]n2c(COc3cccc(OCc4nnc5sc(=S)[nH]n45)c3)nnc2s1` returned a TGI of over 100 µM.
The same measure, in the same setting: then `Cc1cn(CCCCCOC(=O)NC(CCCN=C(N)N)C(=O)O)c(=O)[nH]c1=O` (stereo not drawn), with over 100 µM; and `COc1ccc(C(=O)/C=C/c2ccncc2)cc1OC`, with 18.6 µM.
As to `CC(C)(C)NC(=O)N1N=C(c2ccccc2)C1c1ccccc1` (stereo not drawn), the TGI was over 100 µM.

The subject of another test is SF-539 CNS. As to the kind of experiment: inhibition of tumour cell growth, NCI panel, 48 h.
`Cc1ccc(-c2c3c(n(C4OC(CO)C(O)C(O)C4O)c(=S)c2C#N)CC(C)(C)CC3=O)cc1` (stereo not drawn): the TGI was over 100 µM.
The same measure, in the same setting: then `COc1ccc(C(OCC2OC(n3cc(C)c(=O)[nH]c3=O)CC2n2cc(Cn3cc(Br)c(=O)[nH]c3=O)nn2)(c2ccccc2)c2ccccc2)cc1` (stereo not drawn), with over 100 µM; and `CC(NNC(=O)CC(=O)N(C(=O)c1ccccc1)c1ccc(Cl)cc1)c1cc2ccccc2oc1=O` (stereo not drawn), with over 10 µM; and `CC(C)(C)c1cc(C(=O)/C=C/C=C/c2ccccc2)cc(C(C)(C)C)c1O`, with 33.6 µM.
The same measure, in the same setting: then `O=[N+]([O-])c1ccc(S(=O)(=O)N=Ic2ccccc2)cc1`, with over 100 µM; and `O=C(O)CCN(CCC(=O)O)c1ccc(/C=C2\SC(=S)NC2=O)cc1`, with over 100 µM; and `O=C(NS(=O)(=O)OCC(Cl)(Cl)Cl)SCCC(F)(F)C(F)(F)C(F)(F)C(F)(F)C(F)(F)C(F)(F)F`, with 34.5 µM.
In the case of `S=c1[nH]n2c(COc3cccc(OCc4nnc5sc(=S)[nH]n45)c3)nnc2s1`, the TGI is over 100 µM.
Still for that read-out and setting: then `Cc1cn(CCCCCOC(=O)NC(CCCN=C(N)N)C(=O)O)c(=O)[nH]c1=O` (stereo not drawn), with over 100 µM.
Compound `COc1ccc(C(=O)/C=C/c2ccncc2)cc1OC` registered a TGI of 22.1 µM.
`CC(C)(C)NC(=O)N1N=C(c2ccccc2)C1c1ccccc1` (stereo not drawn) came in with a TGI of 41.4 µM.

The subject of another test is KM12 colon. As to the kind of experiment: inhibition of tumour cell growth, NCI panel, 48 h.
Consider `Cc1ccc(-c2c3c(n(C4OC(CO)C(O)C(O)C4O)c(=S)c2C#N)CC(C)(C)CC3=O)cc1` (stereo not drawn), for which the TGI was over 100 µM.
The same measure, in the same setting: then `COc1ccc(C(OCC2OC(n3cc(C)c(=O)[nH]c3=O)CC2n2cc(Cn3cc(Br)c(=O)[nH]c3=O)nn2)(c2ccccc2)c2ccccc2)cc1` (stereo not drawn), with over 100 µM.
Same read-out and setting: then `CC(NNC(=O)CC(=O)N(C(=O)c1ccccc1)c1ccc(Cl)cc1)c1cc2ccccc2oc1=O` (stereo not drawn), with over 10 µM.
Still for that read-out and setting: then `CC(C)(C)c1cc(C(=O)/C=C/C=C/c2ccccc2)cc(C(C)(C)C)c1O`, with over 92.7 µM; and `O=[N+]([O-])c1ccc(S(=O)(=O)N=Ic2ccccc2)cc1`, with over 100 µM.
Consider `O=C(O)CCN(CCC(=O)O)c1ccc(/C=C2\SC(=S)NC2=O)cc1`, for which the TGI was over 100 µM.
Still for that read-out and setting: then `O=C(NS(=O)(=O)OCC(Cl)(Cl)Cl)SCCC(F)(F)C(F)(F)C(F)(F)C(F)(F)C(F)(F)C(F)(F)F`, with 43.5 µM; and `S=c1[nH]n2c(COc3cccc(OCc4nnc5sc(=S)[nH]n45)c3)nnc2s1`, with over 100 µM.
Same read-out and setting: then `Cc1cn(CCCCCOC(=O)NC(CCCN=C(N)N)C(=O)O)c(=O)[nH]c1=O` (stereo not drawn), with over 100 µM; and `CC(C)(C)NC(=O)N1N=C(c2ccccc2)C1c1ccccc1` (stereo not drawn), with over 100 µM.
